The values that follow come from patent US9351494B2, “Honeybee repellents and uses thereof” (Inscent, Inc., priority 2013, dated 2016).

The test system of one data set is OBP2. The data set can be described thus: fluorescent-quench, ligand-protein-binding assay (OBP2 binding). The arrangement: species or system Apis mellifera. The text has this: To identify a honeybee repellent disclosed herein, candidate compounds were screened based upon the fact that 2-heptanone is an established repellent of bees. 2-heptanone is thought to mediate its behavioral response through binding to a specific odorant-binding protein called OBP2. Therefore compounds that bind OBP2 have the potential to act as odor “mimics” of 2-heptanone. By utilizing a fluorescent-quench, ligand-protein-binding assay, 30,000 compounds from the […]® library (ChemBridge Corp., San Diego, Calif.), a chemical library, were screened and over 150 candidate compounds were isolated that bind OBP2 (Table 1). Such assays are generally known in the art. See, e.g., Briand, et al., Ligand-Binding Properties and Structural Characterization of a Novel Rat Odorant-Binding Protein Variant, Eur. J. Biochem. 267(10): 3079-3089 (2000); Briand, et al., Ligand Binding and Physico-Chemical Properties of ASP2, A Recombinant Odorant-Binding Protein From Honeybee (Apis mellifera L.), Eur. J. Biochem. 268(3): 752-760 (2001); Briand, et al., Characterization of a Chemosensory Protein (ASP3c) from Honeybee (Apis mellifera L.) as a Brood Pheromone Carrier, Eur. J. Biochem. 269(18): 4586-4596 (2002), each of which is hereby incorporated by reference in its entirety.

For data set [1], the system named is Apis mellifera Carniolan foraging worker honeybees. The data set can be described thus: proboscis extension response (PER) assay with bees conditioned to 2-heptanone. The following applies: for 2-heptanone positive bees testing positive to compound: PER, compound 0.5% on filter paper, 4 seconds exposure, only bees giving a PER with 2-heptanone but not with negative controls counted. The data set is classed as in vivo. The protocol: To determine whether a living honeybee can recognize a candidate compound, these compounds were tested using a proboscis extension response (PER) assay using classical conditioning approaches. Proboscis extension response conditioning is a case of appetitive learning, in which bees learn to associate odor stimuli with sucrose reward in the laboratory. In this case, bees were conditioned to produce a PER to 2-heptanone as the conditioned stimulus and a sugar reward as the unconditioned stimulus. These trained bees were then exposed to an odor pulse of a candidate compound to test whether a candidate compound would also produce a PER. If the candidate compound “mimics” 2-heptanone then the honeybee will extend its proboscis. For conditioning procedures, Apis mellifera Carniolan foraging worker honeybees were obtained from a local apiary (typically 60 bees per shipment). The honeybees were held overnight in insect cages with food and water freely available, in an environmentally controlled room on a light cycle similar to the ambient cycle at the time of the assay. For conditioning procedures, all tests were done in an odorant delivery apparatus set inside a fume hood. The apparatus comprised a set of open-ended, horizontal, 3 cm diameter by 10 cm long plastic tubes. Each tube was designed where a honeybee could be positioned at the distal end of a tube, with the opening at the other end of the tube located proximal to an inlet of the fume hood. To deliver an odorant, room air was pumped by a diaphragm pump through a particle filter via 0.25 inch plastic tubing at approximately 0.7 m/sec. The air flow passes into the headspace above an odorant (0.5% [v/v]2-heptanone dissolved in odorless light paraffin oil) contained in a 100 mL bottle. The headspace air then passes through another plastic tube to a manifold of 4-way valves, each of which was attached near the proximal end of a plastic tube containing a bee. Each bee was exposed separately for a desired time period to the odorant by opening and closing the appropriate valve. When each valve was closed, the odor was flushed away immediately by the continuous fume hood air stream. To train a honeybee to respond to a conditioned and unconditioned stimuli, bees were placed, without anesthesia, in individual 1.5 mL micro-centrifuge holding tubes and held overnight without access to food or water. The holding tubes containing the starved bees were placed in racks in groups of eight. One rack at a time was placed behind the odorant delivery apparatus so that each bee's head is centered at the distal end of a horizontal plastic tube. Each bee was exposed to the 2-heptanone odorant alone for four seconds, and then while being fed an 80% sucrose solution for and additional three seconds. The sucrose solution was delivered on a piece of saturated filter paper held in forceps. […] Positive and negative responses were recorded. A positive PER was scored when a bee extended its proboscis before the sucrose appeared. In a typical trial, 48 individual bees were subjected to conditioning. Six rounds of training were done before testing began, and typically a majority of the bees were successfully conditioned by the second or third round of training. After conditioning, honeybees were tested with the candidate compounds the same day or on the following day or, most commonly, both. When held overnight, bees were fed with sucrose and kept in their holding tubes. When tested the day after training, bees were given one or more rounds of conditioning with 2-heptatone to refresh their memories. Candidate compounds stocks were made at 5% (w/v) in polyoxyethylene octyl phenyl ether (TRITON® X-100), a non-ionic detergent/surfactant, and stored at 4° C. This detergent is similar to substances used as carriers for a variety of commercial pest-control agents, can act as a solvent for both hydrophilic and hydrophobic substances, and is itself nearly odorless. […]

Data set [2] shares this test system. Put plainly: choice test in a free-flight box apparatus. The data set is classed as in vivo. The following applies: for Z-score: Z-test (alpha=10%) versus control likelihood 47.5%, critical Z-score 1.282, positive value attractant, negative repellant; for nP (number of tests a honeybee returned to a preferred test dish): candidate compound 0.05-0.5% on filter paper below honey dish, out of n total tests; for P (probability that a honeybee will return to a test dish, nP/n): compared to control likelihood of 47.5% without compound. The text has this:
To determine whether living honeybees will choice to move towards a source of a candidate compound, these compounds will be assayed using a choice test in a free-flight box apparatus.
All tests will be done in a free-flight box apparatus. The apparatus comprises a 244 cm long×46 cm deep×30 cm high clear plastic box including two equally-sized independent testing chambers, each with 10 cm diameter air inlets that admit filtered room air, separated by a smaller central chamber with a screened air outlet to each testing chamber. Air can be pulled through the sealed box via a 10 cm diameter duct from the air outlet using an AQE Fume Fighter 500 fume extractor (BPA Air Quality Solutions, LLC, Charleston, S.C.), which removes the test odors using activated charcoal and HEPA filters. The box is housed in an environmentally controlled room with overhead illumination timed to correspond to the current ambient light cycle including 2 additional sets of lights timed to approximate crepuscular lighting conditions. The bottom of the apparatus will be lined with clean absorbent paper marked with a 4×9 grid pattern, forming 12 cm×12 cm squares with marked coordinates.
Apis mellifera Carniolan foraging worker honeybees will be obtained from a local apiary (typically 60 bees per shipment). Thirty honeybees will be put into each testing chamber and will be allowed to acclimate for 24 hours with food and water freely available. At the beginning of each test day all food will be removed from the test chamber, but water will be continually available throughout all tests. For each test, approximately 0.3 g of organic, raw orange blossom honey will be added to each clean small plastic weigh boat (Cole-Palmer). The honey boats will be placed in small plastic culture dishes, which will be distributed in the marked squares in the chambers. The positions of the dishes on the grid for a set of trials was chosen to avoid bees' preferred resting area so that they will have to find the food actively, but the same dish positions will be maintained for a given set of trials. We will use seven dishes of honey: six to which the bees will have access and a seventh that will have a screened lid. The honey in each boat was weighed on an analytical balance before and after the test, with the screened sample as a control for evaporative loss. The fume extractor was left off during the experimental trails, and was turned on to clear the air after the test dishes were covered and removed from the chamber at the end of each trial.
Based on the observation that bees tend to return to dishes in the same position where they have fed before, each set of trials with each group of bees began with “Pattern Identification” tests to see which dishes lose the most weight, reflecting the most feeding. Once bees are consuming an acceptable amount in 10-15 min, typically in 1-2 trials, a set of test compound trials will begin. The test compound will be pipetted onto pieces of filter paper placed on the dish bottom below the boat containing a fresh, weighed honey sample so that the test compound will be inaccessible to the bees. We used 2 μL of a candidate compound at a concentration of 0.05-0.5%, in Triton X-100 or paraffin oil, on each of four pieces of filter paper per dish. The test-solution dishes will be set at the same positions as the one or two dishes favored in the preceding Pattern Identification trial. To eliminate interference from the solvent, the other dishes without the test substance will contain the same volume of the appropriate solvent on filter papers as the test solution dishes. The bees will be allowed to feed for 10-15 minutes. Bee movements will be recorded by a small, wide-angle digital video camcorder (HD Hero 960; GoPro, Halfmoon Bay, Calif.) placed on a tripod in front of the test chamber. […]

For data set [3] the following is noted: cited from earlier work.

In the case of `Nc1c(C(=O)c2ccccc2)sc2nc(-c3ccccc3)ccc12` [Candidate Compound 76, (3-amino-6-phenylthieno[2,3-b]pyridin-2-yl)(phenyl)methanone], the “OBP2 binding characteristic of compound” value with OBP2 is given as “Moderate (Moderate, indicates that 50% or less of the compound bound to OBP2.)”. The “2-heptanone positive bees testing positive to compound” value in data set [1] is 11.9%.
Turning to `CCOc1cc(C)nc(-c2ccccc2O)n1` [Candidate Compound 64, 2-(4-ethoxy-6-methyl-2-pyrimidinyl)phenol], in the data set on OBP2, the “OBP2 binding characteristic of compound” value was “Moderate (Moderate, indicates that 50% or less of the compound bound to OBP2.)”. In data set [2], the Z-score was −3.043; the “nP (number of tests a honeybee returned to a preferred test dish)” value is 16; the “P (probability that a honeybee will return to a test dish, nP/n)” value was 0.276. Besides, the “2-heptanone positive bees testing positive to compound” value in data set [1] came to 21.7%.
As for `COc1ccc(CCC(C)NN2CCOCC2)cc1` (centres unmarked) [Candidate Compound 65, N-[3-(4-methoxyphenyl)-1-methylpropyl]-4-morpholinamine], in the data set with OBP2, the “OBP2 binding characteristic of compound” value is listed as “Moderate (Moderate, indicates that 50% or less of the compound bound to OBP2.)”. Further, the “2-heptanone positive bees testing positive to compound” value in data set [1] is recorded as 7.6%.
`CCCCCC(C)=O` [2-heptanone, 2-Heptanone]: in data set [3] (alcohol or ether), the “solubility in alcohol or ether” value was “soluble”. Also, the solubility in water result in data set [3] (water) is recorded as “very slightly soluble”. Also, the “total bees subjected to conditioning that exhibited a PER with the 2-heptanone positive control” value in data set [1] (0.5% 2-heptanone in paraffin oil) is reported as “about half”.
Turning to `CCOC(=O)c1c(NC(=O)C(C)(C)C)sc2c1CCCC2` [Candidate Compound 69, ethyl 2-[(2,2-dimethylpropanoyl)amino]-4,5,6,7-tetrahydro-1-benzothiophene-3-carboxylate], the “OBP2 binding characteristic of compound” value with OBP2 is given as “Moderate (Moderate, indicates that 50% or less of the compound bound to OBP2.)”. The “2-heptanone positive bees testing positive to compound” value in data set [1] is recorded as 6.5%.
As for `C=CCOc1cc(C)nc(-c2ccccc2O)n1` [Candidate Compound 104, 2-[4-(allyloxy)-6-methyl-2-pyrimidinyl]phenol], the “OBP2 binding characteristic of compound” value in the data set with OBP2 is listed as “Moderate (Moderate, indicates that 50% or less of the compound bound to OBP2.)”. In data set [1], the “2-heptanone positive bees testing positive to compound” value is 27.9%.
With `COc1ccc(C2SCC(=O)N2CCc2ccccc2)cc1` (centres unmarked) [Candidate Compound 63, 2-(4-methoxyphenyl)-3-(2-phenylethyl)-1,3-thiazolidin-4-one], in the data set with OBP2, the “OBP2 binding characteristic of compound” value is given as “Moderate (Moderate, indicates that 50% or less of the compound bound to OBP2.)”. Also, in data set [2], the Z-score is given as 0.394; the “nP (number of tests a honeybee returned to a preferred test dish)” value was 32; the “P (probability that a honeybee will return to a test dish, nP/n)” value turned out to be 0.5. Also, the “2-heptanone positive bees testing positive to compound” value in data set [1] is listed as 21.4%.
As for `O=C(NC(=S)N1CCCc2ccccc21)c1ccccc1` [Candidate Compound 62, N-(3,4-dihydro-1(2H)-quinolinylcarbonothioyl)benzamide], the “OBP2 binding characteristic of compound” value in the data set on OBP2 was “Moderate (Moderate, indicates that 50% or less of the compound bound to OBP2.)”. Moreover, in data set [1], the “2-heptanone positive bees testing positive to compound” value worked out at 23.6%.
